Source: ChEMBL document CHEMBL4477189, “Effects of 2,3-Dehydrosilybin and Its Galloyl Ester and Methyl Ether Derivatives on Human Umbilical Vein Endothelial Cells” (J Nat Prod, 2016)
Active and inactive are the calls of the source. The calls are words filed in the database; no cut-off is given here.

Tests used:
HUVEC [1] = test: Antimigratory activity in HUVEC assessed as inhibition of cell migration at 10 uM measured after 16 to 20 hrs by crystal violet staining-based microscopic analysis; assay type: functional; conditions: Homo sapiens
HUVEC [2] = test: Antimigratory activity in HUVEC assessed as inhibition of cell migration measured after 16 to 20 hrs by crystal violet staining-based microscopic analysis; assay type: functional; conditions: Homo sapiens
HUVEC [3] = test: Antiproliferative activity in HUVEC assessed as reduction in cell viability measured after 72 hrs by MTT assay; assay type: functional, cell-based; conditions: Homo sapiens
HUVEC [4] = test: Cytotoxicity in HUVEC assessed as reduction in cell viability measured after 24 hrs by MTT assay; assay type: cell-based; conditions: Homo sapiens
RF/6A [5] = test: Antiproliferative activity in rhesus monkey RF/6A cells measured after 24 to 72 hrs by MTT assay; assay type: functional, cell-based; conditions: Macaca mulatta
RF/6A [6] = test: Antimigratory activity in rhesus monkey RF/6A cells measured after 24 hrs by wound assay; assay type: functional, cell-based; conditions: Macaca mulatta
[7] = Antiproliferative activity against bFGF-stimulated BBEC by Coulter particle counter method; assay type: functional, Bos taurus

Row | SMILES | inhibition (HUVEC [1]) | IC50 (HUVEC [2]) [µM] | IC50 (HUVEC [3]) [µM] | IC50 (HUVEC [4]) [µM] | IC50 (RF/6A [5]) [µM] | IC50 (RF/6A [6]) [µM] | IC50 [7] [µM] | inhibition (HUVEC [2])
1 | COc1cc(C2Oc3cc(-c4oc5cc(O)cc(O)c5c(=O)c4OC(=O)c4cc(O)c(O)c(O)c4)ccc3OC2CO)ccc1O (stereo not drawn) | Active | 36.8 | 11.7 | 18.9 | – | – | – | –
2 | COc1cc(O)c2c(=O)c(O)c(-c3ccc4c(c3)OC(c3ccc(O)c(OC)c3)C(CO)O4)oc2c1 (stereo not drawn) | Active | 10.4 | 6.7 | 15.2 | – | – | – | –
3 | COc1cc(C2Oc3cc(-c4oc5cc(O)cc(O)c5c(=O)c4OC)ccc3OC2CO)ccc1O (stereo not drawn) | Active | 11.3 | 4.9 | 22.5 | – | – | – | –
4 | O=c1c(O)c(-c2ccc(O)c(O)c2)oc2cc(O)cc(O)c12 [QUERCETIN] | – | – | – | – | 70 | 40 | 5.4 | –
5 | COc1cc(C2Oc3cc(-c4oc5cc(O)cc(OC)c5c(=O)c4O)ccc3OC2CO)ccc1O (stereo not drawn) | Active | 11.1 | 6.2 | 62.4 | – | – | – | –
6 | O=c1cc(-c2ccc(O)c(O)c2)oc2cc(O)cc(O)c12 [LUTEOLIN] | – | – | – | – | – | – | 1.9 | –
7 | COCC1Oc2ccc(-c3oc4cc(O)cc(O)c4c(=O)c3O)cc2OC1c1ccc(O)c(OC)c1 (stereo not drawn) | Active | 10.5 | 5.3 | 28.3 | – | – | – | –
8 | COc1cc(O)c2c(=O)c(OC)c(-c3ccc4c(c3)OC(c3ccc(O)c(OC)c3)C(CO)O4)oc2c1 (stereo not drawn) | Active | 49.9 | 8.3 | 43.1 | – | – | – | –
9 | O=c1cc(-c2ccc(O)c(O)c2)oc2cc(OC3O[C@H](CO)[C@@H](O)[C@H](O)[C@H]3O)cc(O)c12 (stereo partly drawn) | – | – | – | – | – | – | 18 | –
10 | COc1cc(C2Oc3cc(-c4oc5cc(O)cc(O)c5c(=O)c4O)ccc3OC2CO)ccc1O (stereo not drawn) [DEHYDROSILYLBIN] | Active | 12.2 | 5.4 | 12 | – | – | – | –
11 | COc1cc(C2Oc3cc(-c4oc5cc(OC(=O)c6cc(O)c(O)c(O)c6)cc(O)c5c(=O)c4O)ccc3OC2CO)ccc1O (stereo not drawn) | Active | 4.7 | 1.6 | 3.4 | – | – | – | Dose-dependent effect
